In the supplement of paper PMC11451515:

Legend:
Settings in all cases: 48 h
NOMO1 [1] = test: cell viability relative to DMSO control; higher = less cytotoxic
Procedure, shortened: (§1)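 In 1536-well plates, 5 μl of leukemia cells were seeded per well: 500 cells/well for NOMO1 or SEM and 1000 cells/well for P12-Ichikawa. Each line had first been adapted for at least four passages in each medium. Library compounds in DMSO were pin-dosed at 11 threefold concentrations between 47 μM and 0.79 nM, and CellTiter-Glo One luminescence was read after 48 h at 37°C. Viability is a per-plate percentage relative to DMSO wells, with cell-free wells as background.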

P12-Ichikawa [2] = test: as above
Procedure, shortened: as §1

SEM cells [3] = test: as above
Procedure, shortened: as §1

NOMO1 [4] = test: AUC of viability dose-response curve (% viability x log10 dose units); higher = less sensitive
Procedure, shortened: (§2)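 Area under the curve was integrated by trapezoidal rule from a log-logistic fit of normalised viability, with curves exceeding full viability scaled and quality-control failures removed. The fit had four parameters over log10 doses. Viability came from CellTiter-Glo One luminescence, normalised per plate to DMSO and cell-free wells, after leukemia cells adapted to each medium (500 or 1000 cells/well, 1536-well plates) were exposed to library compounds in DMSO for 48 h at 37°C. The 11 threefold doses ran from 47 μM to 0.79 nM.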

P12-Ichikawa [5] = test: as above
Procedure, shortened: as §2

SEM cells [6] = test: as above
Procedure, shortened: as §2

O=C(Oc1ccc([N+](=O)[O-])cc1)N1CCN(Cc2cccc(Oc3ccccc3)c2)CC1
cell viability [%]
Settings	NOMO1 [1]	P12-Ichikawa [2]	SEM cells [3]
HPLM + 10% dialyzed FBS, 0.000781 µM	115	96.8	94.6
HPLM + 10% dialyzed FBS, 0.00234 µM	110	101	100
HPLM + 10% dialyzed FBS, 0.00702 µM	112	106	93.4
HPLM + 10% dialyzed FBS, 0.0211 µM	113	116	106
HPLM + 10% dialyzed FBS, 0.0632 µM	113	113	103
HPLM + 10% dialyzed FBS, 0.19 µM	126	112	64.4
HPLM + 10% dialyzed FBS, 0.569 µM	104	114	120
HPLM + 10% dialyzed FBS, 1.71 µM	126	111	116
HPLM + 10% dialyzed FBS, 5.12 µM	120	113	107
HPLM + 10% dialyzed FBS, 15.4 µM	102	102	107
HPLM + 10% dialyzed FBS, 46.1 µM	122	104	121
RPMI 5 mM glucose + 10% FBS, 0.000781 µM	95.6	105	90.4
RPMI 5 mM glucose + 10% FBS, 0.00234 µM	101	98	86.1
RPMI 5 mM glucose + 10% FBS, 0.00702 µM	112	112	99.5
RPMI 5 mM glucose + 10% FBS, 0.0211 µM	113	114	106
RPMI 5 mM glucose + 10% FBS, 0.0632 µM	113	111	93.6
RPMI 5 mM glucose + 10% FBS, 0.19 µM	123	112	67.1
RPMI 5 mM glucose + 10% FBS, 0.569 µM	110	122	111
RPMI 5 mM glucose + 10% FBS, 1.71 µM	105	118	106
RPMI 5 mM glucose + 10% FBS, 5.12 µM	110	102	102
RPMI 5 mM glucose + 10% FBS, 15.4 µM	109	102	95.9
RPMI 5 mM glucose + 10% FBS, 46.1 µM	112	107	101
RPMI 5 mM glucose + 10% dialyzed FBS, 0.000781 µM	93.9	101	112
RPMI 5 mM glucose + 10% dialyzed FBS, 0.00234 µM	98.5	92.2	108
RPMI 5 mM glucose + 10% dialyzed FBS, 0.00702 µM	103	100	108
RPMI 5 mM glucose + 10% dialyzed FBS, 0.0211 µM	99.8	101	125
RPMI 5 mM glucose + 10% dialyzed FBS, 0.0632 µM	99.9	105	115
RPMI 5 mM glucose + 10% dialyzed FBS, 0.19 µM	98.3	101	60.9
RPMI 5 mM glucose + 10% dialyzed FBS, 0.569 µM	103	105	109
RPMI 5 mM glucose + 10% dialyzed FBS, 1.71 µM	114	114	108
RPMI 5 mM glucose + 10% dialyzed FBS, 5.12 µM	104	103	114
RPMI 5 mM glucose + 10% dialyzed FBS, 15.4 µM	112	109	110
RPMI 5 mM glucose + 10% dialyzed FBS, 46.1 µM	105	108	121

AUC of viability dose-response curve
Settings	NOMO1 [4]	P12-Ichikawa [5]	SEM cells [6]
HPLM + 10% dialyzed FBS	469	468	433
RPMI 5 mM glucose + 10% FBS	460	475	453
RPMI 5 mM glucose + 10% dialyzed FBS	451	457	468

COc1ccc(-c2nc3cc(C4=NNC(=O)CC4C)ccc3[nH]2)cc1 (stereo unspecified)
cell viability [%]
Settings	NOMO1 [1]	P12-Ichikawa [2]	SEM cells [3]
HPLM + 10% dialyzed FBS, 0.000781 µM	104	104	86.8
HPLM + 10% dialyzed FBS, 0.00234 µM	117	105	90.5
HPLM + 10% dialyzed FBS, 0.00702 µM	107	109	99.6
HPLM + 10% dialyzed FBS, 0.0211 µM	103	113	107
HPLM + 10% dialyzed FBS, 0.0632 µM	110	107	109
HPLM + 10% dialyzed FBS, 0.19 µM	119	114	106
HPLM + 10% dialyzed FBS, 0.569 µM	112	108	98.7
HPLM + 10% dialyzed FBS, 1.71 µM	123	114	101
HPLM + 10% dialyzed FBS, 5.12 µM	119	105	111
HPLM + 10% dialyzed FBS, 15.4 µM	119	106	92.5
HPLM + 10% dialyzed FBS, 46.1 µM	126	98.7	75.4
RPMI 5 mM glucose + 10% FBS, 0.000781 µM	91.5	103	92.2
RPMI 5 mM glucose + 10% FBS, 0.00234 µM	102	110	95.2
RPMI 5 mM glucose + 10% FBS, 0.00702 µM	100	110	105
RPMI 5 mM glucose + 10% FBS, 0.0211 µM	108	111	102
RPMI 5 mM glucose + 10% FBS, 0.0632 µM	117	115	112
RPMI 5 mM glucose + 10% FBS, 0.19 µM	118	105	121
RPMI 5 mM glucose + 10% FBS, 0.569 µM	109	108	111
RPMI 5 mM glucose + 10% FBS, 1.71 µM	114	105	120
RPMI 5 mM glucose + 10% FBS, 5.12 µM	102	113	101
RPMI 5 mM glucose + 10% FBS, 15.4 µM	117	111	119
RPMI 5 mM glucose + 10% FBS, 46.1 µM	118	117	90.8
RPMI 5 mM glucose + 10% dialyzed FBS, 0.000781 µM	116	88.3	93.6
RPMI 5 mM glucose + 10% dialyzed FBS, 0.00234 µM	110	98.5	91.6
RPMI 5 mM glucose + 10% dialyzed FBS, 0.00702 µM	111	104	111
RPMI 5 mM glucose + 10% dialyzed FBS, 0.0211 µM	105	103	110
RPMI 5 mM glucose + 10% dialyzed FBS, 0.0632 µM	110	108	113
RPMI 5 mM glucose + 10% dialyzed FBS, 0.19 µM	118	93.2	110
RPMI 5 mM glucose + 10% dialyzed FBS, 0.569 µM	104	102	107
RPMI 5 mM glucose + 10% dialyzed FBS, 1.71 µM	111	104	120
RPMI 5 mM glucose + 10% dialyzed FBS, 5.12 µM	116	109	110
RPMI 5 mM glucose + 10% dialyzed FBS, 15.4 µM	110	110	115
RPMI 5 mM glucose + 10% dialyzed FBS, 46.1 µM	120	84.1	84.4

AUC of viability dose-response curve
Settings	NOMO1 [4]	P12-Ichikawa [5]	SEM cells [6]
HPLM + 10% dialyzed FBS	445	473	467
RPMI 5 mM glucose + 10% FBS	459	465	462
RPMI 5 mM glucose + 10% dialyzed FBS	461	470	465
